We go through eight compounds from PubChem BioAssay (NCI).

SMILES strings stand for the structures.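 48-hour exposure; five concentrations; linearly interpolated endpoints. The concentration for 50% growth inhibition is given as GI50. Definition used: TGI = concentration required for complete inhibition of growth.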 Bounds are passed on as bounds.

Common to all, as to experiment: inhibition of tumour cell growth, NCI panel, 48 h
Experiment [1] concerns CAKI-1 renal.
The subject of experiment [2] is NCI/ADR-RES ovarian.
In experiment [3] the test system is CCRF-CEM leukemia.
Experiment [4] concerns K-562 leukemia.
For experiment [5], the system named is HOP-92 NSCLC.
Experiment [6] concerns NCI-H23 lung.
In experiment [7] the test system is NCI-H522 lung.
The test system of experiment [8] is BT-549 breast.
In experiment [9] the test system is SNB-75 CNS.
Experiment [10] has as its system HL-60(TB) leukemia.

Turning to `C=C1C(=O)O[C@H]2[C@H]1CC/C(CNC(=O)/C=C/c1cccc(OC)c1)=C\CC[C@@]1(C)O[C@@H]21`, the GI50 was 1.31 µM in experiment [1]; 3.79 µM in experiment [2]; 0.419 µM in experiment [3]; 1.31 µM in experiment [4]; 1.03 µM in [5]; 1.67 µM in experiment [6]. Also, the GI50 was 0.435 µM in experiment [7], 1.57 µM in experiment [8] and 1.82 µM in experiment [9]. Also, the TGI in [1] amounted to 2.68 µM; in experiment [2], 17.8 µM; in [3] it was 5.29 µM; in experiment [4], 18.6 µM; in experiment [5], 3.38 µM; in [6], 3.35 µM. Also, the TGI in [7] stood at 1.77 µM; in [8], 3.66 µM; in [9] it was 8.09 µM.
For the compound `O=CN1N=C(c2ccc(Nc3ccnc4cc(Cl)ccc34)cc2)CC1c1ccccc1` (centres undefined), the GI50 is 3.82 µM in experiment [1]; 2.69 µM in experiment [2]; 2.51 µM in [3]; 4.28 µM in [5]; 3.64 µM in [6]; 2.66 µM in experiment [10]. For the same compound, the GI50 is 3.81 µM in experiment [8] and 5.03 µM in experiment [9]. In addition, the TGI in [1] is 32.2 µM; in experiment [2], 59.8 µM; in experiment [3], 8.55 µM; in [5], more than 100 µM; in experiment [6] it was more than 100 µM; in experiment [10], 6.21 µM. The TGI is 15.6 µM in [8] and more than 100 µM in experiment [9].
As for `CCCCCCCCCCCCCC[P+](CCCCCC)(CCCCCC)CCCCCC`, the GI50 in experiment [1] was 0.236 µM; in [2], 0.73 µM; in [4], 0.0232 µM; in experiment [5], 0.0299 µM; in experiment [6], 0.083 µM; in experiment [7], 0.105 µM. Moreover, the GI50 in experiment [10] is 0.0303 µM; in experiment [8] it was 0.0412 µM; in [9] it was 0.125 µM. Moreover, the TGI in experiment [1] was 0.771 µM; in [2], more than 100 µM; in [4], 0.0858 µM; in experiment [5], 0.423 µM; in experiment [6], 1.4 µM; in experiment [7] it was 0.956 µM. Besides, the TGI in experiment [10] was found to be 0.0966 µM; in [8], 0.381 µM.
As to `Nc1nc2c(c3ncccc13)C(c1ccc(Cl)c(Cl)c1)Cc1ncccc1-2` (centres undefined), the GI50 in [1] was 3.9 µM; in experiment [2] it was 3.31 µM; in experiment [3] it was 3.27 µM; in [4], 2.67 µM; in [6], 5.59 µM; in experiment [7] it was 1.5 µM. Besides, the GI50 was 3.09 µM in experiment [10], 3.73 µM in [8] and 1.85 µM in experiment [9]. The TGI in experiment [1] was found to be 20.5 µM; in experiment [2], 16.1 µM; in [3], 16.6 µM; in experiment [4] it was 17.3 µM; in experiment [6], 21.6 µM; in experiment [7], 5.1 µM. In addition, the TGI in experiment [10] is 16.2 µM; in experiment [8], 16.7 µM; in experiment [9], 6.6 µM.
As for `Cn1c(=O)c(Oc2cccc(F)c2)cc2cnc(NC3CCOCC3)nc21`, the GI50 in [1] is more than 22.4 µM; in experiment [2] it was more than 25 µM; in experiment [4], more than 25 µM; in experiment [5] it was 4.47 µM; in [6], more than 25 µM; in experiment [7] it was more than 25 µM. In addition, the GI50 was more than 25 µM in experiment [10], more than 25 µM in [8] and more than 6.38 µM in experiment [9]. For the same compound, the TGI in [1] was more than 25 µM; in [2] it was more than 25 µM; in experiment [4] it was more than 25 µM; in [5] it was 24.5 µM; in experiment [6] it was more than 25 µM; in [7], more than 25 µM. Further, the TGI in [10], in experiment [8] and in experiment [9] was more than 25 µM each time.
In the case of `ON(CCc1ccncc1)Cc1ccccc1`, the TGI in [1], in [2], in experiment [4], in experiment [5], in experiment [6] and in [7] was more than 100 µM each time. In addition, the TGI in experiment [8] and in [9] was more than 100 µM in each case.
As for `COc1ccc(Nc2ncccc2/C=C/C(=O)c2cc(OC)c(OC)c(OC)c2)cc1`, the GI50 in experiment [1] was 1.52 µM; in experiment [2] it was 2.23 µM; in experiment [3], 0.5 µM; in [4] it was 0.783 µM; in experiment [5], 1.59 µM; in experiment [6], 1.72 µM. Moreover, the GI50 in experiment [7] was 0.36 µM; in [8], 1.58 µM; in experiment [9], 1.15 µM. In addition, the TGI in experiment [1] was 3.88 µM; in experiment [2] it was 13.7 µM; in experiment [3] it was more than 100 µM; in experiment [4], 3.51 µM; in experiment [5], 4.28 µM; in experiment [6] it was 3.79 µM. Also, the TGI was determined as 1.64 µM in experiment [7], 3.08 µM in experiment [8] and 2.37 µM in experiment [9].
For the compound `Cc1ccc2c[c]1[Hg][CH2]COS2(=O)=O`, the GI50 in experiment [2] is 25 µM; in [4], 16.4 µM; in experiment [5], 19.5 µM; in experiment [6], 23.4 µM; in experiment [7], 22.6 µM; in experiment [10] it was 21.8 µM. Further, the GI50 was 17.8 µM in experiment [8] and more than 100 µM in experiment [9]. Also, the TGI in [2] is 62.1 µM; in experiment [4] it was 41.2 µM; in experiment [5], 38.3 µM; in experiment [6] it was 49.2 µM; in experiment [7], 42.8 µM; in experiment [10] it was 42.1 µM. Also, the TGI in experiment [8] is 31.6 µM; in [9], more than 100 µM.
